This note sets out measurements from patent publication US12384776B2, “Compounds and uses thereof” (Foghorn Therapeutics Inc., priority 2019, dated 2025).

The IC50 is the concentration that gives 50% inhibition. Low values mean higher potency, high ones lower potency.

Structures are written as SMILES.

Sequence of Nanoluciferase-BRD9 fusion protein (3×FLAG-NLuc-BRD9) in SYO-1 cells (Q9H8M2 whole entry, the tested form may be a part): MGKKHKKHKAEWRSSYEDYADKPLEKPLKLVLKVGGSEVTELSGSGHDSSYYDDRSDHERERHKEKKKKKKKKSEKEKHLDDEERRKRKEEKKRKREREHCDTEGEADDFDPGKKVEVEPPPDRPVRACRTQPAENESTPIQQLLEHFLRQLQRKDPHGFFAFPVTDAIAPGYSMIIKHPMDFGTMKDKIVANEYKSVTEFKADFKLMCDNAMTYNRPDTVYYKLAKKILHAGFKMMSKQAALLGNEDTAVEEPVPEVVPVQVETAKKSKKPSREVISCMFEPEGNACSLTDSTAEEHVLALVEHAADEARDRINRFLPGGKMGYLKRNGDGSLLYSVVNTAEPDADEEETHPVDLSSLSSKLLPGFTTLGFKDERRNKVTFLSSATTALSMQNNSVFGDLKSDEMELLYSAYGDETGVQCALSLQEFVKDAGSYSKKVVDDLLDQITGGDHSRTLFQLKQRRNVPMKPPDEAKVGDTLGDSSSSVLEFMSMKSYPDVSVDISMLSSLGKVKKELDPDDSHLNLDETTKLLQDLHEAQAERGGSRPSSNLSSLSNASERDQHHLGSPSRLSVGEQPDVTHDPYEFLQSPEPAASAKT

The first test has as its target Nanoluciferase-BRD9 fusion protein (3×FLAG-NLuc-BRD9) in SYO-1 cells (Homo sapiens (Human), UniProt Q9H8M2). Kind of test: SYO1 BRD9 NanoLuc degradation assay. The note with it: SYO-1 cells expressing 3×FLAG-NLuc-BRD9, 6 hours incubation, top dose 1 μM. The format is cell-based. As for the experimental part:
Procedure: A stable SYO-1 cell line expressing 3×FLAG-NLuc-BRD9 was generated. On day 0 cells were seeded in 30 μL media into each well of 384-well cell culture plates. The seeding density was 8000 cells/well. On day 1, cells were treated with 30 nL DMSO or 30 nL of 3-fold serially DMSO-diluted compounds (10 points in duplicates with 1 μM as final top dose). Subsequently plates were incubated for 6 hours in a standard tissue culture incubator and equilibrated at room temperature for 15 minutes. Nanoluciferase activity was measured by adding 15 μL of freshly prepared Nano-Glo Luciferase Assay Reagent (Promega N1130), shaking the plates for 10 minutes and reading the bioluminescence using an EnVision reader.
Results: The Inhibition % was calculated using the following formula: % Inhibition=100×(LumHC−LumSample)/(LumHC−LumLC). DMSO treated cells are employed as High Control (HC) and 1 μM of a known BRD9 degrader standard treated cells are employed as Low Control (LC).
The molecule `COc1cc(-c2cn(C)c(=O)c3c2CCN(C(=O)NCCCN2CC4(CCN(c5ccc6c(c5)C(=O)N(C5CCC(=O)NC5=O)C6=O)C4)C2)C3)cc(OC)c1CN(C)C` (stereo not drawn) [Compound D210] displayed an IC50 of 10 to 100 nM. With `CNC(=O)N1CCc2c(-c3cc(OC)c(CN4CC5CN(C(=O)CCOCCOc6ccc7c(c6)C(=O)N(C6CCC(=O)NC6=O)C7=O)CCC54)c(OC)c3)cn(C)c(=O)c2C1` (stereo not drawn) [Compound D289], the IC50 lay within 10 to 100 nM.

As for `CNC(=O)N1CCc2c(-c3cc(OC)c(CN4CCC(CN(C)C5CC(Oc6ccc7c(c6)C(=O)N(C6CCC(=O)NC6=O)C7=O)C5)CC4)c(OC)c3)cn(C)c(=O)c2C1` (stereo not drawn) [Compound D149], the IC50 was less than 10 nM.

Take `CNC(=O)N1CCc2c(-c3cc(OC)c(CN4CCC(CCN5Cc6cc7c(cc6C5)C(=O)N(C5CCC(=O)NC5=O)C7=O)CC4)c(OC)c3)cn(C)c(=O)c2C1` (stereo not drawn) [Compound D179]: the IC50 was less than 10 nM.

Take `COc1cc(-c2cn(C)c(=O)c3c2CCN(C(=O)NCC2CC4(CCN(CCCCN5CCN(c6ccc7c(c6)C(=O)N(C6CCC(=O)NC6=O)C7=O)CC5)CC4)O2)C3)cc(OC)c1CN(C)C` (stereo not drawn) [Compound D193]: the IC50 was no less than 1000 nM.

In the case of `COc1cc(-c2cn(C)c(=O)c3c2CCN(C(=O)NCCN2CCC(C4CCN(c5ccc6c(c5)C(=O)N(C5CCC(=O)NC5=O)C6=O)CC4)C2)C3)cc(OC)c1CN(C)C` (stereo not drawn) [Compound D205], the IC50 fell in the range of 10 to 100 nM.

As to `COc1cc(-c2cn(C)c(=O)c3c2CCN(C(=O)NCCCCCOc2cccc4c2C(=O)N(C2CCC(=O)NC2=O)C4=O)C3)cc(OC)c1CN1CCC1` (stereo not drawn) [Compound D90], the IC50 lay in the range of 10 to 100 nM. The molecule `COc1cc(-c2cn(C)c(=O)c3c2CCN(C(=O)NCCCN2CCC4(CC2)CN(c2ccc5c(c2)C(=O)N(C2CCC(=O)NC2=O)C5=O)C4)C3)cc(OC)c1CN(C)C` (stereo not drawn) [Compound D246] showed an IC50 of less than 10 nM. Consider `COc1cc(-c2cn(C)c(=O)c3c2CCN(C(=O)NCC2CC24CCN(CCCCN2CCN(c5ccc6c(c5)C(=O)N(C5CCC(=O)NC5=O)C6=O)CC2)CC4)C3)cc(OC)c1CN(C)C` (stereo not drawn) [Compound D240], for which the IC50 is 100 to 1000 nM. The same measure, in the same setting: to `COc1cc(-c2cn(C)c(=O)c3c2CCN(C(=O)NC2CC4(CCN(CCCCN5CCN(c6ccc7c(c6)C(=O)N(C6CCC(=O)NC6=O)C7=O)CC5)C4)C2)C3)cc(OC)c1CN(C)C` (stereo not drawn) [Compound D226] belongs 10 to 100 nM.

The same test, now with this note: SYO-1 cells expressing 3×FLAG-NLuc-BRD9, 6 hours incubation, top dose 1 μM; read-out: SYO1 BRD9-NanoLuc degradation IC50.
Regarding `COc1cc(-c2cn(C)c(=O)c3c2CN(C)CC3)cc(OC)c1CN1CC(CN2CCC3(CC2)CN(c2ccc4c(c2)C(=O)N(C2CCC(=O)NC2=O)C4)C3)C1` (stereo not drawn) [Compound D293], the DC50 is 100 to 1000 nM.

The test is the same for the next values; noted with them: SYO-1 cells, 6 hours, Table 6A.
As to `COc1cc(-c2cn(C)c(=O)c3c2CCN(C(=O)NCCCCCCCCNc2ccc4c(c2)C(=O)N(C2CCC(=O)NC2=O)C4=O)C3)cc(OC)c1CN(C)C` (stereo not drawn) [Compound D9, 5-(4-((dimethylamino)methyl)-3,5-dimethoxyphenyl)-N-(8-((2-(2,6-dioxopiperidin-3-yl)-1,3-dioxoisoindolin-5-yl)amino)octyl)-7-methyl-8-oxo-3,4,7,8-tetrahydro-2,7-naphthyridine-2 (1H)-carboxamide formic acid], the IC50 was less than 10 nM.

With `CNC(=O)N1CCc2c(-c3cc(OC)c(CN4CCN(C(=O)CCCOc5cccc6c5C(=O)N(C5CCC(=O)NC5=O)C6=O)CC4)c(OC)c3)cn(C)c(=O)c2C1` (stereo not drawn) [Compound D1, 5-(4-[[4-(4-[[2-(2,6-dioxopiperidin-3-yl)-1,3-dioxoisoindol-4-yl]oxy]butanoyl)piperazin-1-yl]methyl]-3,5-dimethoxyphenyl)-N,7-dimethyl-8-oxo-3,4-dihydro-1H-2,7-naphthyridine-2-carboxamide], the IC50 is greater than 10 nM.

Staying with this test, now noted: SYO-1 cells, 6 hours, Table 6C.
In turn, `CNC(=O)N1CCc2c(-c3cc(OC)c(CN4CCN(CCC5CCN(c6ccc7c(c6)C(=O)N(C6CCC(=O)NC6=O)C7)CC5(F)F)CC4)c(OC)c3)cn(C)c(=O)c2C1` (stereo not drawn) [Compound D346] showed a half-maximal inhibitory concentration (IC50) of less than 10 nM. `CNC(=O)N1CCc2c(-c3cc(OC)c(CN4CCC(C(N5CCC6(CC5)CC(Oc5ccc7c(c5)C(=O)N(C5CCC(=O)NC5=O)C7)C6)C(F)(F)F)CC4)c(OC)c3)cn(C)c(=O)c2C1` (stereo not drawn) [Compound D345] returned an IC50 of less than 10 nM.
